Key:
[1] = test system: rat hepatocytes; assay: Metabolic clearance in 3D perfused bioreactor; settings: day 6, two experiments; probe incubated 24 h; disappearance by LC/MS/MS
[2] = test system: human hepatocytes; assay: Metabolic clearance in 3D perfused bioreactor; settings: day 4, four experiments; probe incubated 24 h; disappearance by LC/MS/MS

Compound | Clearance values, Rat LiverChip [1] | Clearance values, Human LiverChip [2]
Cc1ncc2n1-c1ccc(Cl)cc1C(c1ccccc1F)=NC2 [Midazolam] | 38 µL per min, per million cells | 13 µL per min, per million cells
C=CCN1CC[C@]23c4c5ccc(O)c4O[C@H]2C(=O)CC[C@@]3(O)[C@H]1C5 [Naloxone] | 39 µL per min, per million cells | 29 µL per min, per million cells
